Each structure is given as a SMILES string.

We go through four compounds from patent publication US7048907B2, “Synthesis, compositions and methods for the measurement of the concentration of stable-isotope labeled compounds in life forms and life form excretory products” (BioPhysics Assay Laboratory, Inc., priority 2001, dated 2006).

Data set [1] is described as follows: Stability of chelates in rat serum (CM-Sephadex assay, serum binding). To be noted: 24 hours in rat serum at room temperature.
Data set [2] can be described thus: Blood depletion of Gd-DTPA in the rat after three sequential administrations (theoretical example). Type of data set: in vivo. The protocol: In this theoretical example, three 0.5 ml samples of Gd-DTPA (0.05 mg/kg) each dissolved in saline (pH 7) are injected sequentially at 0, 20, and 40 minutes into the tail vein of a rat. Samples of blood are obtained at 10, 30 and 60 minutes following each injection and analyzed for Gd by T1 relaxation. […] This example highlights one advantage of using neutron activation over T1 relaxivity to measure pharmacological rates of elimination when using sequential injections (compare Examples 32 and 33).

For data set [3] the following is noted: demonstrated by properties of the marketed pharmaceutical product; cited from earlier work.
Data set [4] can be described thus: Effect of dilution on the stability of Sm-DTPA. Type of data set: physicochemical. As for the experimental part: Sm-DTPA (1 mM) was prepared as described in Example 9. The solution was further diluted with 0.01 M Tris buffer pH 7.51:10, 1:100, 1:1000, and 1:10000 and allowed to stand at room temperature for 24 hours. The four samples were then assayed for stability of the Sm-DTPA complex as described in Example 17.

Setting [5] is: Fraction 1: 0.2 ml sample then 2 ml 0.01M Tris pH 7.5 (eluate).
The mark [6] stands for this setting: Fraction 2: 3 ml 0.01M Tris pH 7.5.
[7] abbreviates: Fraction 3: column and contents (retained).
Where [8] appears, read: Sm-DTPA 0.1 μM, 24 hours room temperature, Fraction 1: 3 ml Tris before sample.
Where [9] appears, read: Sm-DTPA 0.1 μM, 24 hours room temperature, Fraction 2: sample then 3 ml Tris (eluate).
Setting [10] is: Sm-DTPA 0.1 μM, 24 hours room temperature, Fraction 3: further 3 ml Tris.
[11] abbreviates: Sm-DTPA 0.1 μM, 24 hours room temperature, Fraction 4: column and contents.
Setting [12] is: Sm-DTPA 1 μM, 24 hours room temperature, Fraction 1: 3 ml Tris before sample.
Where [13] appears, read: Sm-DTPA 1 μM, 24 hours room temperature, Fraction 2: sample then 3 ml Tris (eluate).
Setting [14] is: Sm-DTPA 1 μM, 24 hours room temperature, Fraction 3: further 3 ml Tris.
Setting [15] is: Sm-DTPA 1 μM, 24 hours room temperature, Fraction 4: column and contents.
[16] abbreviates: Sm-DTPA 10 μM, 24 hours room temperature, Fraction 1: 3 ml Tris before sample.
The mark [17] stands for this setting: Sm-DTPA 10 μM, 24 hours room temperature, Fraction 2: sample then 3 ml Tris (eluate).
The mark [18] stands for this setting: Sm-DTPA 10 μM, 24 hours room temperature, Fraction 3: further 3 ml Tris.
The mark [19] stands for this setting: Sm-DTPA 10 μM, 24 hours room temperature, Fraction 4: column and contents.
Where [20] appears, read: Sm-DTPA 100 uM, 24 hours room temperature, Fraction 1: 3 ml Tris before sample.
Where [21] appears, read: Sm-DTPA 100 uM, 24 hours room temperature, Fraction 2: sample then 3 ml Tris (eluate).
Where [22] appears, read: Sm-DTPA 100 uM, 24 hours room temperature, Fraction 3: further 3 ml Tris.
The mark [23] stands for this setting: Sm-DTPA 100 uM, 24 hours room temperature, Fraction 4: column and contents.
Where [24] appears, read: Sm-DTPA 1 mM, Fraction 1: 3 ml Tris before sample.
Where [25] appears, read: Sm-DTPA 1 mM, Fraction 2: sample then 3 ml Tris (eluate).
Where [26] appears, read: Sm-DTPA 1 mM, Fraction 3: further 3 ml Tris.
Where [27] appears, read: Sm-DTPA 1 mM, Fraction 4: column and contents.

With `O=C([O-])CN(CCN(CC(=O)[O-])CC(=O)[O-])CCN(CC(=O)[O-])CC(=O)[O-].[Eu+3]` [Eu-DTPA], the entries for the “% of total” value in data set [1] (setting [5]), in data set [1] (setting [6]) and in data set [1] (setting [7]) were 91 % of total, 9 % of total and 0 % of total, respectively. For the same compound, the figures for the dpm in data set [1] (setting [5]), in data set [1] (setting [6]) and in data set [1] (setting [7]) were 4763 dpm, 499 dpm and 0 dpm, respectively.

For `O=C([O-])CN(CCN(CC(=O)[O-])CC(=O)O)CCN(CC(=O)[O-])CC(=O)O.[Gd+3]` [Gd-DTPA, Gd-diethylenetriaminepentaacetic acid], the “Percent of initial injection, First injection” value in data set [2] (0 min after 1st injection, Gd-DTPA 0.05 mg/kg i.v. at 0, 20, 40 minutes, T1 relaxation) is given as 100% of initial injection; in data set [2] (10 min after 1st injection), 81% of initial injection; in data set [2] (20 min after 1st injection), 73% of initial injection; in data set [2] (30 min after 1st injection) it was 59% of initial injection; in data set [2] (40 min after 1st injection) it was 47% of initial injection; in data set [2] (50 min after 1st injection) it was 35% of initial injection. For the same compound, the “Percent of initial injection, First injection” value in data set [2] (60 min after 1st injection) was 29% of initial injection; in data set [2] (70 min after 1st injection), 26% of initial injection; in data set [2] (80 min after 1st injection) it was 22% of initial injection; in data set [2] (100 min after 1st injection) it was 18% of initial injection. Moreover, the “Percent of initial injection, Cumulative total” value was 100% of initial injection in data set [2] (0 min after 1st injection, calculated based upon the first injection); 81% of initial injection in data set [2] (10 min after 1st injection); 173% of initial injection in data set [2] (20 min after 1st injection); 140% of initial injection in data set [2] (30 min after 1st injection); 220% of initial injection in data set [2] (40 min after 1st injection); 175% of initial injection in data set [2] (50 min after 1st injection). In addition, the “Percent of initial injection, Cumulative total” value was 149% of initial injection in data set [2] (60 min after 1st injection), 120% of initial injection in data set [2] (70 min after 1st injection), 95% of initial injection in data set [2] (80 min after 1st injection) and 75% of initial injection in data set [2] (100 min after 1st injection). The “Percent of initial injection, Second injection” value in data set [2] (20 min after 1st (0 min after 2nd) injection) is 100% of initial injection; in data set [2] (30 min after 1st (10 min after 2nd) injection) it was 81% of initial injection; in data set [2] (40 min after 1st (20 min after 2nd) injection), 73% of initial injection; in data set [2] (50 min after 1st (30 min after 2nd) injection), 59% of initial injection; in data set [2] (60 min after 1st (40 min after 2nd) injection), 47% of initial injection; in data set [2] (70 min after 1st (50 min after 2nd) injection), 35% of initial injection. The results for the “Percent of initial injection, Second injection” value in data set [2] (80 min after 1st (60 min after 2nd) injection) and in data set [2] (100 min after 1st (80 min after 2nd) injection) were 26% of initial injection and 22% of initial injection, respectively. Also, the “Percent of initial injection, Third injection” value was 100% of initial injection in data set [2] (40 min after 1st (0 min after 3rd) injection); 81% of initial injection in data set [2] (50 min after 1st (10 min after 3rd) injection); 73% of initial injection in data set [2] (60 min after 1st (20 min after 3rd) injection); 59% of initial injection in data set [2] (70 min after 1st (30 min after 3rd) injection); 47% of initial injection in data set [2] (80 min after 1st (40 min after 3rd) injection); 35% of initial injection in data set [2] (100 min after 1st (60 min after 3rd) injection). Further, the “stability to autoclaving” value in data set [3] is given as “stability of gadolinium-DTPA to autoclaving is demonstrated”.

Consider `O=C([O-])CN(CCN(CC(=O)[O-])CC(=O)[O-])CCN(CC(=O)[O-])CC(=O)[O-].[La+3]` [La-DTPA], for which the “% of total” value in data set [1] (setting [5]) is reported as 93 % of total; in data set [1] (setting [6]), 7 % of total; in data set [1] (setting [7]) it was 0 % of total. Besides, the dpm in data set [1] (setting [5]) turned out to be 82912 dpm; in data set [1] (setting [6]), 6167 dpm; in data set [1] (setting [7]), 0 dpm.

As to `O=C([O-])CN(CCN(CC(=O)[O-])CC(=O)[O-])CCN(CC(=O)[O-])CC(=O)[O-].[Sm+3]` [Sm-DTPA], the “% of total” value in data set [4] (setting [8]) was 0 % of total; in data set [4] (setting [9]), 99 % of total; in data set [4] (setting [10]) it was 1 % of total; in data set [4] (setting [11]) it was 0 % of total; in data set [4] (setting [12]), 0 % of total; in data set [4] (setting [13]), 96 % of total. The “% of total” value in data set [4] (setting [14]) is 2 % of total; in data set [4] (setting [15]), 2 % of total; in data set [4] (setting [16]) it was 0 % of total; in data set [4] (setting [17]), 100 % of total; in data set [4] (setting [18]), <1 % of total; in data set [4] (setting [19]), 0 % of total. The “% of total” value is 0 % of total in data set [4] (setting [20]); 98 % of total in data set [4] (setting [21]); <1 % of total in data set [4] (setting [22]); 2 % of total in data set [4] (setting [23]); 0 % of total in data set [4] (setting [24]); 97 % of total in data set [4] (setting [25]). The “% of total” value was 1 % of total in data set [4] (setting [26]) and 2 % of total in data set [4] (setting [27]). Moreover, the Dpm amounted to 0 dpm in data set [4] (setting [8]); 192 dpm in data set [4] (setting [9]); 1 dpm in data set [4] (setting [10]); 0 dpm in data set [4] (setting [11]); 0 dpm in data set [4] (setting [12]); 1386 dpm in data set [4] (setting [13]). Moreover, the Dpm is 29 dpm in data set [4] (setting [14]); 21 dpm in data set [4] (setting [15]); 0 dpm in data set [4] (setting [16]); 15685 dpm in data set [4] (setting [17]); 19 dpm in data set [4] (setting [18]); 0 dpm in data set [4] (setting [19]). Also, the Dpm amounted to 0 dpm in data set [4] (setting [20]); 162208 dpm in data set [4] (setting [21]); 1308 dpm in data set [4] (setting [22]); 2121 dpm in data set [4] (setting [23]); 0 dpm in data set [4] (setting [24]); 1482087 dpm in data set [4] (setting [25]). The Dpm was 19089 dpm in data set [4] (setting [26]) and 24257 dpm in data set [4] (setting [27]). Also, the “stability of the complex on dilution” value in data set [4] (concentration limits of 1 mM to 0.1 μM, 24 hours room temperature) is reported as “stable complex”. In addition, the “% eluting from CM Sephadex columns” value in data set [4] (concentration range of 0.1 μM to 1 mM) is given as 100%.
